The values that follow are results of earlier work, collected in US20170165232A1, “THREE-PHASE CONTROLLED-RELEASE TABLET COMPRISING MELATONIN AND PROCESS OF PREPARATION” (Ambros Pharma S.R.L., priority 2010, published 2017).

The conditions of the series: in humans.

For `COc1ccc2[nH]cc(CCNC(C)=O)c2c1` [melatonin, N-acetyl-5-methoxytryptamine], the half-life result is given as “about 40 minutes”.
